Test results published in US7241782B1, “Polymorph V of torasemide” (PLIVA, farmaceutska industrija, dionicko drustvo, priority 2000, dated 2007).

What was measured:
[1] = Stability at milling and pressing under normal storage conditions; type: physicochemical
[2] = Release of the active substance in water (USP 24); type: physicochemical; conditions: for Released torasemide: water, USP 24, 37° C., 50 rpm, 1000 ml
Description: This makes the novel polymorph V of torasemide suitable for the preparation of pharmaceutical preparations having immediate or prolonged action. The novel polymorph V of torasemide obtained according to Example 1 of the present invention was subjected to testing the release of the active substance in water at the temperature of 37° C. [table]

Stability of the crystal form (no transformation into modifications I, II, III or amorphous) [1]: stable at milling and pressing | Release in comparison with the release profile of known crystalline torasemide modifications ([2]; in water (USP 24), same medium): slower release | Released torasemide ([2]; time 0 min): 0% | Released torasemide ([2]; time 15 min): 11.3% | Released torasemide ([2]; time 30 min): 20.5% | Released torasemide ([2]; time 45 min): 26.0% | Released torasemide ([2]; time 60 min): 30.0% | Released torasemide ([2]; time 90 min): 36.0% | Released torasemide ([2]; time 120 min): 40.7%
SMILES: Cc1cccc(Nc2ccncc2S(=O)(=O)NC(=O)NC(C)C)c1 [novel polymorph V of torasemide, N-(1-methylethylaminocarbonyl)-4-(3-methyl-phenylamino)-3-pyridinesulfonamide]
